Experimental data taken from US20070264319A1, “Transdermal Antiemesis Delivery System, Method and Composition Therefor” (priority 2004, published 2007).
Where a name gives a salt, the structure may show the parent alone.

Assays:
[1] = typical oral dose of about 1 to about 2 mg twice daily; cited from earlier work
[2] = Solubility of granisetron base in penetration enhancers; type: physicochemical; details: thermodynamic from solid
Experimental: The incorporation of granisetron base in various penetration enhancers and solvents was determined by incrementally adding small amounts of the drug to about 100 ml of liquid penetration enhancer, and agitating the liquid mixture until the drug was no longer incorporated (i.e., saturation) to provide an apparently saturated liquid mixture at an ambient room temperature in the range of about 20 to about 25° C. Each of the saturated liquid mixtures was agitated by inverting for about 24 hours at ambient room temperature, the solution was centrifuged and its supernatant was diluted in HPLC mobile phase and assayed by the HPLC method as described in Example 2.

[3] = water and normal saline at 20° C.; cited from earlier work

solubility at 24 h ([2]; oil or lipid, in Isopropyl myristate, about 20 to about 25° C.) [µg/mL] | solubility at 24 h ([2]; organic solvent or mixture, in BRIJ ® 30, about 20 to about 25° C.) [µg/mL] | solubility at 24 h ([2]; organic solvent or mixture, in DDAIP (free base), about 20 to about 25° C.) [µg/mL] | solubility at 24 h ([2]; organic solvent or mixture, in DGME (transcutol), about 20 to about 25° C.) [µg/mL] | solubility at 24 h ([2]; organic solvent or mixture, in Limonene, about 20 to about 25° C.) [µg/mL] | solubility at 24 h ([2]; organic solvent or mixture, in NMP, about 20 to about 25° C.) [µg/mL] | solubility at 24 h ([2]; organic solvent or mixture, in PEG-400, ambient room temperature about 20 to about 25° C.) [µg/mL] | solubility at 24 h ([2]; organic solvent or mixture, in Propylene glycol, about 20 to about 25° C.) [µg/mL] | solubility at 24 h ([2]; organic solvent or mixture, in SPAN ® 20, about 20 to about 25° C.) [µg/mL] | SMILES | elimination half-life [1] | solubility [3]
5.46 | 41.2 | 7.17 | 86.6 | 8.59 | 196 | 45.7 | 31.7 | 32.9 | CN1C2CCCC1CC(NC(=O)c1nn(C)c3ccccc13)C2 (centres unmarked) [Granisetron] | about 7 hours | –
– | – | – | – | – | – | – | – | – | CN1C2CCCC1CC(NC(=O)c1nn(C)c3ccccc13)C2 (centres unmarked) [Granisetron hydrochloride] | – | soluble in water and normal saline
